Assay results as given in the supplement of paper PMC10627819.

Assays:
S. aureus DSM 20231 = assay: Bliss interaction score (quartile over a dose matrix) (fitness difference); higher = more antagonism (negative = synergy)
In short: (§1)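 Fitness is OD595 at stationary-phase entry relative to the plate's robust no-drug mean, capped at 1. Single-drug fitness was inferred from combinations. The Bliss score is observed minus product-expected fitness, summarised by quartiles over technical, biological and donor/recipient replicates.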

S. aureus Newman = assay: as above
In short: as §1

B. subtilis 168 = assay: as above
In short: as §1

S. pneumoniae D39V [1] = assay: as above
In short: as §1

S. pneumoniae D39V [2] = assay: fitness (endpoint OD595 vs no drug) (fraction); higher = more growth
In short: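 In 384-well plates at 37 °C, cultures began at OD595 0.01 in 30 µl, with 55 µl used for S. pneumoniae. OD595 readings every 30 min for 14 h were corrected by the first reading. Fitness divides the stationary-phase transition optical density by the robust mean of no-drug control wells. The result is capped at 1.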
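For Bliss interaction score (quartile over a dose matrix) in this document: first quartile when negative (synergy) and third quartile when positive (antagonism).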

C[C@H]1COc2c(N3CCN(C)CC3)c(F)cc3c(=O)c(C(=O)O)cn1c23 [Levofloxacin] + Cn1nnc(-c2ccc(-c3ccc(N4C[C@H](CO)OC4=O)cc3F)cn2)n1 [Tedizolid]
Conditions | Bliss interaction score
B. subtilis 168 | 0.0224
S. aureus DSM 20231 | 0.0821
S. aureus Newman | 0.057
S. pneumoniae D39V [1] | -0.126

fitness, S. pneumoniae D39V [2]
Conditions | first compound 0.1725 µg/mL | first compound 0.2 µg/mL | first compound 0.345 µg/mL | first compound 0.4 µg/mL | first compound 0.69 µg/mL | first compound 0.8 µg/mL
partner 0.03125 µg/mL | – | 0.921 | – | 0.855 | – | 0.629
partner 0.0625 µg/mL | – | 0.94 | – | 0.878 | – | 0.731
partner 0.125 µg/mL | 0.758 | 0.768 | 0.703 | 0.731 | 0.433 | 0.608
partner 0.25 µg/mL | 0.826 | – | 0.757 | – | 0.401 | –
partner 0.5 µg/mL | 0.243 | – | 0.203 | – | 0.189 | –

C[C@H]1COc2c(N3CCN(C)CC3)c(F)cc3c(=O)c(C(=O)O)cn1c23 [Levofloxacin] + O=C1CN(/N=C/c2ccc([N+](=O)[O-])o2)C(=O)N1 [Nitrofurantoin]
Conditions | Bliss interaction score
B. subtilis 168 | 0.0577
S. aureus DSM 20231 | 0.027
S. aureus Newman | -0.0599
S. pneumoniae D39V [1] | -0.0691

fitness, S. pneumoniae D39V [2]
Conditions | first compound 0.1725 µg/mL | first compound 0.2 µg/mL | first compound 0.345 µg/mL | first compound 0.4 µg/mL | first compound 0.69 µg/mL | first compound 0.8 µg/mL
partner 1.285 µg/mL | – | 0.894 | – | 0.842 | – | 0.558
partner 2 µg/mL | 0.921 | – | 0.852 | – | 0.568 | –
partner 2.57 µg/mL | – | 0.909 | – | 0.865 | – | 0.524
partner 4 µg/mL | 0.92 | – | 0.797 | – | 0.535 | –
partner 8 µg/mL | 0.799 | – | 0.688 | – | 0.38 | –

S. pneumoniae D39V [2], partner 5.14 µg/mL, one replicate
Conditions | fitness
first compound 0.2 µg/mL | 0.86
first compound 0.4 µg/mL | 0.75
first compound 0.8 µg/mL | 0.317

CN(C)C(=O)C(CCN1CCC(O)(c2ccc(Cl)cc2)CC1)(c1ccccc1)c1ccccc1 [Loperamide] + C/C(=C\C(=O)OCCCCCCCCC(=O)O)C[C@@H]1OC[C@H](C[C@@H]2O[C@H]2[C@@H](C)[C@H](C)O)[C@@H](O)[C@H]1O [Pseudomonic acid]
Conditions | Bliss interaction score
B. subtilis 168 | -0.0528
S. aureus DSM 20231 | 0.0202
S. aureus Newman | 0.0342
S. pneumoniae D39V [1] | 0.121

fitness, S. pneumoniae D39V [2]
Conditions | first compound 17.14 µg/mL | first compound 20 µg/mL | first compound 34.28 µg/mL | first compound 40 µg/mL | first compound 80 µg/mL
partner 0.03 µg/mL | ≥ 1 | 0.9 | 0.99 | 0.961 | 0.845
partner 0.06 µg/mL | 0.859 | 0.726 | 0.808 | 0.766 | 0.747
partner 0.12 µg/mL | 0.686 | 0.544 | 0.632 | 0.569 | 0.509

S. pneumoniae D39V [2], first compound 68.57 µg/mL, one replicate
Conditions | fitness
partner 0.03 µg/mL | ≥ 1
partner 0.06 µg/mL | 0.996
partner 0.12 µg/mL | 0.663

CN(C)C(=O)C(CCN1CCC(O)(c2ccc(Cl)cc2)CC1)(c1ccccc1)c1ccccc1 [Loperamide] + CN[C@H](CC(C)C)C(=O)N[C@H]1C(=O)N[C@@H](CC(N)=O)C(=O)N[C@H]2C(=O)N[C@H]3C(=O)N[C@H](C(=O)N[C@H](C(=O)O)c4cc(O)cc(O)c4-c4cc3ccc4O)[C@H](O)c3ccc(c(Cl)c3)Oc3cc2cc(c3O[C@@H]2O[C@H](CO)[C@@H](O)[C@H](O)[C@H]2O[C@H]2C[C@](C)(N)[C@H](O)[C@H](C)O2)Oc2ccc(cc2Cl)[C@H]1O [Vancomycin]
Conditions | Bliss interaction score
B. subtilis 168 | -0.0281
S. aureus DSM 20231 | -0.0861
S. aureus Newman | 0.0922
S. pneumoniae D39V [1] | -0.184

S. pneumoniae D39V [2]
Conditions | fitness
first compound 17.14 µg/mL, partner 0.5 µg/mL | 0.0584
first compound 20 µg/mL, partner 0.03125 µg/mL | ≥ 1
first compound 20 µg/mL, partner 0.0625 µg/mL | 0.937
first compound 34.28 µg/mL, partner 0.25 µg/mL | 0.77
first compound 34.28 µg/mL, partner 0.5 µg/mL | 0.0876
first compound 40 µg/mL, partner 0.03125 µg/mL | 0.959
first compound 40 µg/mL, partner 0.0625 µg/mL | 0.866
first compound 80 µg/mL, partner 0.125 µg/mL | 0.28

S. pneumoniae D39V [2], first compound 68.57 µg/mL, one replicate
Conditions | fitness
partner 0.125 µg/mL | 0.942
partner 0.25 µg/mL | 0.853
partner 0.5 µg/mL | 0.0639

CN(C)C(=O)C(CCN1CCC(O)(c2ccc(Cl)cc2)CC1)(c1ccccc1)c1ccccc1 [Loperamide] + CO[C@H]1/C=C/O[C@@]2(C)Oc3c(C)c(O)c4c(O)c(c(/C=N/N5CCN(C)CC5)c(O)c4c3C2=O)NC(=O)/C(C)=C\C=C\[C@H](C)[C@H](O)[C@@H](C)[C@@H](O)[C@@H](C)[C@H](OC(C)=O)[C@@H]1C [Rifampicin]
Conditions | Bliss interaction score
B. subtilis 168 | 0.161
S. aureus DSM 20231 | -0.0475
S. aureus Newman | 0.012
S. pneumoniae D39V [1] | -0.0733

fitness, S. pneumoniae D39V [2]
Conditions | first compound 17.14 µg/mL | first compound 34.28 µg/mL
partner 0.05 µg/mL | 0.875 | –
partner 0.2 µg/mL | 0.145 | 0.136

fitness, S. pneumoniae D39V [2], one replicate
Conditions | first compound 20 µg/mL | first compound 40 µg/mL | first compound 68.57 µg/mL | first compound 80 µg/mL
partner 0.025 µg/mL | 0.92 | 0.921 | – | 0.701
partner 0.05 µg/mL | – | – | 0.833 | –
partner 0.1 µg/mL | – | – | 0.544 | –
partner 0.2 µg/mL | 0 | 0 | 0.14 | 0

CN(C)C(=O)C(CCN1CCC(O)(c2ccc(Cl)cc2)CC1)(c1ccccc1)c1ccccc1 [Loperamide] + Clc1ccc(COC(Cn2ccnc2)c2ccc(Cl)cc2Cl)c(Cl)c1 [Miconazole]
Conditions | Bliss interaction score
B. subtilis 168 | -0.136
S. aureus DSM 20231 | 0.0862
S. aureus Newman | -0.158
S. pneumoniae D39V [1] | -0.0772

fitness, S. pneumoniae D39V [2]
Conditions | partner 1.073 µg/mL | partner 1.25 µg/mL | partner 2.145 µg/mL | partner 2.5 µg/mL | partner 4.29 µg/mL | partner 5 µg/mL
first compound 17.14 µg/mL | – | 0.963 | – | 0.954 | – | 0.933
first compound 20 µg/mL | ≥ 1 | – | ≥ 1 | – | 0.926 | –
first compound 34.28 µg/mL | – | 0.884 | – | 0.907 | – | 0.925
first compound 40 µg/mL | ≥ 1 | – | 0.955 | – | 0.731 | –

S. pneumoniae D39V [2], first compound 68.57 µg/mL, one replicate
Conditions | fitness
partner 1.25 µg/mL | 0.857
partner 2.5 µg/mL | 0.85
partner 5 µg/mL | 0.923

CN(C)C(=O)C(CCN1CCC(O)(c2ccc(Cl)cc2)CC1)(c1ccccc1)c1ccccc1 [Loperamide] + Cn1nnc(-c2ccc(-c3ccc(N4C[C@H](CO)OC4=O)cc3F)cn2)n1 [Tedizolid]
Conditions | Bliss interaction score
B. subtilis 168 | 0.06
S. aureus DSM 20231 | 0.198
S. aureus Newman | 0.102
S. pneumoniae D39V [1] | 0.243

fitness, S. pneumoniae D39V [2]
Conditions | first compound 17.14 µg/mL | first compound 20 µg/mL | first compound 34.28 µg/mL | first compound 40 µg/mL | first compound 80 µg/mL
partner 0.03125 µg/mL | – | 0.997 | – | ≥ 1 | ≥ 1
partner 0.0625 µg/mL | – | ≥ 1 | – | ≥ 1 | ≥ 1
partner 0.125 µg/mL | 0.933 | 0.908 | 0.961 | 0.94 | 0.976
partner 0.5 µg/mL | 0.532 | – | 0.529 | – | –

S. pneumoniae D39V [2], first compound 68.57 µg/mL, one replicate
Conditions | fitness
partner 0.125 µg/mL | 0.979
partner 0.25 µg/mL | 0.963
partner 0.5 µg/mL | 0.468

CN(C)C(=O)C(CCN1CCC(O)(c2ccc(Cl)cc2)CC1)(c1ccccc1)c1ccccc1 [Loperamide] + O=C1CN(/N=C/c2ccc([N+](=O)[O-])o2)C(=O)N1 [Nitrofurantoin]
Conditions | Bliss interaction score
B. subtilis 168 | 0.0384
S. aureus DSM 20231 | 0.0206
S. aureus Newman | 0.045
S. pneumoniae D39V [1] | 0.106

S. pneumoniae D39V [2]
Conditions | fitness
first compound 17.14 µg/mL, partner 2 µg/mL | 0.906
first compound 17.14 µg/mL, partner 4 µg/mL | 0.924
first compound 17.14 µg/mL, partner 8 µg/mL | 0.856
first compound 20 µg/mL, partner 1.285 µg/mL | ≥ 1
first compound 20 µg/mL, partner 2.57 µg/mL | 0.98
first compound 34.28 µg/mL, partner 2 µg/mL | 0.904
first compound 34.28 µg/mL, partner 4 µg/mL | 0.941
first compound 34.28 µg/mL, partner 8 µg/mL | 0.883
first compound 40 µg/mL, partner 1.285 µg/mL | ≥ 1
first compound 40 µg/mL, partner 2.57 µg/mL | 0.981
first compound 80 µg/mL, partner 1.285 µg/mL | 0.805
first compound 80 µg/mL, partner 2.57 µg/mL | 0.821

S. pneumoniae D39V [2], one replicate
Conditions | fitness
first compound 20 µg/mL, partner 5.14 µg/mL | ≥ 1
first compound 40 µg/mL, partner 5.14 µg/mL | ≥ 1
first compound 68.57 µg/mL, partner 2 µg/mL | 0.901
first compound 68.57 µg/mL, partner 4 µg/mL | 0.914
first compound 68.57 µg/mL, partner 8 µg/mL | 0.851
first compound 80 µg/mL, partner 5.14 µg/mL | 0.806

CCN(CC)CCOC(=O)c1ccc(N)cc1 [Procaine] + CO[C@H]1/C=C/O[C@@]2(C)Oc3c(C)c(O)c4c(O)c(c(/C=N/N5CCN(C)CC5)c(O)c4c3C2=O)NC(=O)/C(C)=C\C=C\[C@H](C)[C@H](O)[C@@H](C)[C@@H](O)[C@@H](C)[C@H](OC(C)=O)[C@@H]1C [Rifampicin]
Conditions | Bliss interaction score
B. subtilis 168 | -0.0578
S. aureus DSM 20231 | -0.054
S. aureus Newman | -0.0206
S. pneumoniae D39V [1] | 0.0704

S. pneumoniae D39V [2], partner 0.025 µg/mL, one replicate
Conditions | fitness
first compound 85.5 µg/mL | 0.903
first compound 171 µg/mL | 0.875
first compound 342 µg/mL | 0.919

fitness, S. pneumoniae D39V [2]
Conditions | first compound 85.5 µg/mL | first compound 171 µg/mL | first compound 342 µg/mL
partner 0.05 µg/mL | 0.927 | 0.909 | 0.984
partner 0.2 µg/mL | 0.102 | 0.0616 | 0.132
